Experimental data as given in ChEMBL document CHEMBL1201862, “PubChem BioAssay data set” (2004).
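Values below derive from 48-hour exposures of cells grown in 96-well plates, with endpoints linearly interpolated between the two concentrations bracketing the appropriate inhibition level. GI50 = concentration required for 50% inhibition of growth.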 Activity calls are given as the source filed them. Cut-off read from the data, not from the text of the source: active = GI50 up to about 1.1 µM and inactive = higher.

Tests used:
Assay in all cases: NCI tumour cell line growth inhibition, 48 h
[1] = test system: OVCAR-5
[2] = test system: COLO 205
[3] = test system: SR
[4] = test system: M14
[5] = test system: SF-295
[6] = test system: HCT-116
[7] = test system: UO-31
[8] = test system: SN12C
[9] = test system: K562
[10] = test system: MDA-MB-435
[11] = test system: IGROV-1
[12] = test system: SF-268
[13] = test system: KM12
[14] = test system: OVCAR-4
[15] = test system: A549
[16] = test system: ACHN
[17] = test system: NCI-H23
[18] = test system: HOP-62
[19] = test system: SK-MEL-28
[20] = test system: HL-60

SMILES: COc1c(-c2ccc3c(c2)OCO3)oc2cc(O)cc(O)c2c1=O
- GI50 [1]: > 100 µM (inactive)
- GI50 [2]: > 100 µM (inactive)
- GI50 [3]: 22.6 µM (inactive)
- GI50 [4]: 69.8 µM (inactive)
- GI50 [5]: 34.4 µM (inactive)
- GI50 [6]: 62.1 µM (inactive)
- GI50 [7]: 7.19 µM (inactive)
- GI50 [8]: 51.1 µM (inactive)
- GI50 [9]: 45.1 µM (inactive)
- GI50 [10]: 45.7 µM (inactive)
- GI50 [11]: 26.2 µM (inactive)
- GI50 [12]: 32.6 µM (inactive)
- GI50 [13]: 64.7 µM (inactive)
- GI50 [14]: 29.5 µM (inactive)
- GI50 [15]: 47.3 µM (inactive)
- GI50 [16]: 27 µM (inactive)
- GI50 [17]: 63.4 µM (inactive)
- GI50 [18]: 18.6 µM (inactive)
- GI50 [19]: > 100 µM (inactive)
- GI50 [20]: 41.5 µM (inactive)

SMILES: Clc1ccccc1-c1nc(-c2ccncc2)no1 [PIFEXOLE]
- GI50 [1]: > 100 µM (inactive)
- GI50 [2]: 40.8 µM (inactive)
- GI50 [3]: 18.5 µM (inactive)
- GI50 [4]: 62.2 µM (inactive)
- GI50 [5]: 36.5 µM (inactive)
- GI50 [6]: 43.4 µM (inactive)
- GI50 [7]: 47.4 µM (inactive)
- GI50 [8]: 38.2 µM (inactive)
- GI50 [9]: 26.6 µM (inactive)
- GI50 [10]: 48.6 µM (inactive)
- GI50 [11]: 71.3 µM (inactive)
- GI50 [12]: 59.6 µM (inactive)
- GI50 [13]: > 100 µM (inactive)
- GI50 [14]: 59.8 µM (inactive)
- GI50 [15]: 69 µM (inactive)
- GI50 [16]: 88.1 µM (inactive)
- GI50 [17]: 49.4 µM (inactive)
- GI50 [18]: > 100 µM (inactive)
- GI50 [19]: > 100 µM (inactive)
- GI50 [20]: 13.4 µM (inactive)

SMILES: NC(=O)C1CCCN1C(=O)N(CCCl)N=O (stereo not given)
- GI50 [1]: 54.5 µM (inactive)
- GI50 [2]: > 100 µM (inactive)
- GI50 [3]: > 100 µM (inactive)
- GI50 [4]: > 100 µM (inactive)
- GI50 [5]: > 100 µM (inactive)
- GI50 [6]: > 100 µM (inactive)
- GI50 [7]: > 100 µM (inactive)
- GI50 [8]: > 100 µM (inactive)
- GI50 [9]: > 100 µM (inactive)
- GI50 [10]: > 100 µM (inactive)
- GI50 [11]: > 100 µM (inactive)
- GI50 [12]: 74.1 µM (inactive)
- GI50 [13]: > 100 µM (inactive)
- GI50 [14]: > 100 µM (inactive)
- GI50 [15]: > 100 µM (inactive)
- GI50 [16]: > 100 µM (inactive)
- GI50 [17]: > 100 µM (inactive)
- GI50 [18]: > 100 µM (inactive)
- GI50 [19]: > 100 µM (inactive)
- GI50 [20]: > 100 µM (inactive)

SMILES: CC(C)C(Nc1ncnc2nc[nH]c12)C(=O)O (stereo not given)
- GI50 [1]: > 100 µM (inactive)
- GI50 [2]: > 100 µM (inactive)
- GI50 [3]: > 100 µM (inactive)
- GI50 [4]: > 100 µM (inactive)
- GI50 [5]: > 100 µM (inactive)
- GI50 [6]: > 100 µM (inactive)
- GI50 [7]: > 100 µM (inactive)
- GI50 [8]: > 100 µM (inactive)
- GI50 [9]: > 100 µM (inactive)
- GI50 [10]: > 100 µM (inactive)
- GI50 [11]: > 100 µM (inactive)
- GI50 [12]: > 100 µM (inactive)
- GI50 [13]: > 100 µM (inactive)
- GI50 [14]: > 100 µM (inactive)
- GI50 [15]: > 100 µM (inactive)
- GI50 [16]: > 100 µM (inactive)
- GI50 [17]: > 100 µM (inactive)
- GI50 [18]: > 100 µM (inactive)
- GI50 [19]: > 100 µM (inactive)
- GI50 [20]: > 100 µM (inactive)

SMILES: COc1ccc2nc3ccccc3c(NCCN(C)CCCl)c2c1
- GI50 [1]: 1.03 µM (active)
- GI50 [2]: 0.299 µM (active)
- GI50 [3]: 0.0303 µM (active)
- GI50 [4]: 0.843 µM (active)
- GI50 [5]: 0.728 µM (active)
- GI50 [6]: 0.249 µM (active)
- GI50 [7]: 1.16 µM (inactive)
- GI50 [8]: 0.319 µM (active)
- GI50 [9]: 0.337 µM (active)
- GI50 [10]: 0.364 µM (active)
- GI50 [11]: 0.469 µM (active)
- GI50 [12]: 0.55 µM (active)
- GI50 [13]: 0.807 µM (active)
- GI50 [14]: 0.908 µM (active)
- GI50 [15]: 0.479 µM (active)
- GI50 [16]: 0.24 µM (active)
- GI50 [17]: 0.604 µM (active)
- GI50 [18]: 0.869 µM (active)
- GI50 [19]: 1.69 µM (inactive)
- GI50 [20]: 0.259 µM (active)

SMILES: C=C1COC(O)(C2OCOC(C3CC(=O)NC(=O)C3)C2O)C1C (stereo not given)
- GI50 [1]: < 0.0126 µM (active)
- GI50 [2]: 0.00244 µM (active)
- GI50 [3]: 0.00213 µM (active)
- GI50 [4]: 0.00442 µM (active)
- GI50 [5]: 0.00305 µM (active)
- GI50 [6]: 0.00348 µM (active)
- GI50 [7]: 0.00105 µM (active)
- GI50 [8]: 0.00224 µM (active)
- GI50 [9]: 0.00316 µM (active)
- GI50 [10]: 0.00333 µM (active)
- GI50 [11]: 0.00562 µM (active)
- GI50 [12]: 0.00511 µM (active)
- GI50 [13]: 0.00287 µM (active)
- GI50 [14]: 0.00342 µM (active)
- GI50 [15]: 0.00221 µM (active)
- GI50 [16]: 0.00533 µM (active)
- GI50 [17]: 0.00381 µM (active)
- GI50 [18]: 0.00622 µM (active)
- GI50 [19]: 0.00573 µM (active)
- GI50 [20]: 0.00303 µM (active)

SMILES: C=C(c1nc2ccc(Cl)cc2[nH]c1=O)C(O)c1ccc(C(O)C(=O)c2nc3ccc(Cl)cc3[nH]c2=O)cc1 (stereo not given)
- GI50 [1]: > 100 µM (inactive)
- GI50 [2]: > 100 µM (inactive)
- GI50 [3]: 83.6 µM (inactive)
- GI50 [4]: > 100 µM (inactive)
- GI50 [5]: > 100 µM (inactive)
- GI50 [6]: > 100 µM (inactive)
- GI50 [7]: > 91 µM (inactive)
- GI50 [8]: > 100 µM (inactive)
- GI50 [9]: 49 µM (inactive)
- GI50 [10]: > 100 µM (inactive)
- GI50 [11]: > 68.2 µM (inactive)
- GI50 [12]: > 100 µM (inactive)
- GI50 [13]: 60.1 µM (inactive)
- GI50 [14]: > 100 µM (inactive)
- GI50 [15]: > 100 µM (inactive)
- GI50 [16]: 61.7 µM (inactive)
- GI50 [17]: > 100 µM (inactive)
- GI50 [18]: > 100 µM (inactive)
- GI50 [19]: > 100 µM (inactive)
- GI50 [20]: 5.04 µM (inactive)
